Consider 18 compounds from ChEMBL document CHEMBL1151537 (Bioorg Med Chem Lett, 1994).

In assay [1] the target is Melatonin receptor (Gallus gallus, UniProt P49288+P51050+P49285). The assay is described as follows: Binding affinity towards melatonin receptor using 2-[125I]iodomelatonin as radioligand in chick brain membranes. Format: cell membranes, Membrane.
For assay [2], the species on record is Xenopus laevis. The assay can be described thus: Agonistic activity was determined in a pigment aggregation model using cultured melanophores isolated from the neural crest of Xenopus laevis embryos; agonist. The note with it: frog; filed as agonist. Format: functional.
Assay [3] is filed under the species Xenopus laevis. The assay can be described thus: Agonistic activity was determined in a pigment aggregation model using cultured melanophores isolated from the neural crest of Xenopus laevis embryoss; agonist. Format: functional. The settings on record: frog; filed as agonist.
The species named for assay [4] is Xenopus laevis. The assay is described as follows: Concentration producing half maximal aggregation of pigment granules in the centre of the melanophore isolated from the neural crest of Xenopus laevis embryos was determined. Format: functional, frog.
The species named for assay [5] is Xenopus laevis. The assay can be described thus: Agonistic activity was determined in a pigment aggregation model using cultured melanophores isolated from the neural crest of Xenopus laevis embryos; partial. It counts as functional. The note with it: frog; filed as partial agonist.
Assay [6] is filed under the species Xenopus laevis. The assay can be described thus: Agonistic activity was determined in a pigment aggregation model using cultured melanophores isolated from the neural crest of Xenopus laevis embryos; Partial. Format: functional. The note with it: frog; filed as partial agonist.

The Ki is a measure of affinity in units of concentration, obtained from inhibition or displacement. High values mean weaker binding, low ones tighter binding. In the case of `O=C(NCCc1c(Br)[nH]c2cc(Br)ccc12)C1CC1`, in assay [1], the Ki stood at 138 nM. Further, in assay [2], the Activity entry is “Agonist”.

For orientation: EC50 means the midpoint of the concentration-response curve. Low values mean higher potency in that assay, high ones lower potency in that assay. Regarding `CC(=O)NCCc1c(-c2ccccc2)[nH]c2ccccc12`, in assay [3], the Activity result was “Agonist”. Also, the EC50 in assay [4] stood at 70 nM.

`CCC(=O)NCCc1c(Br)[nH]c2cc(Br)ccc12` registered a Ki in assay [1] of 27 nM.

Compound `CCC(=O)NCCc1c[nH]c2ccccc12` registered a Ki in assay [1] of 398 nM. This Ki is about 15-fold higher than that of the compound before.

In assay [1], `O=C(CBr)NCCc1c[nH]c2ccccc12` came in with a Ki of 153 nM. This Ki is about 2.6-fold lower than that of the compound before.

`CC(=O)NCCc1c(Br)[nH]c2cc(Br)ccc12` had a Ki in assay [1] of 122 nM. In assay [5], the Activity result was “Partial agonist”.

`COc1ccc2[nH]cc(CCNC(C)=O)c2c1`: the Activity entry in assay [2] is “Agonist”.

Regarding `CCCC(=O)NCCc1c[nH]c2ccccc12`, the Ki in assay [1] worked out at 98 nM. Besides, the Activity result in assay [6] was “Partial agonist”.

For `O=C(NCCc1c(-c2ccccc2)[nH]c2ccccc12)C(F)(F)F`, the Activity result in assay [5] is “Partial agonist”.

In turn, `O=C(NCCc1c[nH]c2ccccc12)C(F)(F)F` had a Ki in assay [1] of 377 nM. Moreover, the Activity result in assay [6] is “Partial agonist”.

In assay [4], `CCC(=O)NCCc1c(-c2ccccc2)[nH]c2ccccc12` returned an EC50 of 50 nM. The Activity entry in assay [2] is “Agonist”.

Regarding `CC(=O)NCCc1c[nH]c2ccccc12`, in assay [1], the Ki came out at 701 nM. In other words, the sub-micromolar range.

In turn, `CC(=O)NCCc1c(Br)[nH]c2ccccc12` had a Ki in assay [1] of 138 nM. In assay [2], the Activity entry is “Agonist”.

As for `CCCC(=O)NCCc1c(Br)[nH]c2cc(Br)ccc12`, the Ki in assay [1] amounted to 2.3 nM. The Activity entry in assay [5] was “Partial agonist”.

As for `O=C(NCCc1c[nH]c2ccccc12)C1CC1`, in assay [1], the Ki stood at 2600 nM.

On to `CCCC(=O)NCCc1c(-c2ccccc2)[nH]c2ccccc12`, for which the Activity result in assay [5] is “Partial agonist”.

Take `O=C(CBr)NCCc1c(Br)[nH]c2ccccc12`: the Ki in assay [1] was 14 nM. In addition, the Activity entry in assay [2] is “Agonist”.

Regarding `O=C(NCCc1c(Br)[nH]c2cc(Br)ccc12)C(F)(F)F`, the Ki in assay [1] is recorded as 367 nM.
